Test system: Trioza erytreae
Type: in vivo

SMILES: CC1(S(=O)(=O)[O-])CC(=O)c2ccccc2C1=O.[Na+] (centres unmarked) [MSB, menadione sodium bisulphite]
- trees that showed leaves with the typical symptoms of the Trioza erytreae attack (Plot A 2000 trees, Plot B 300 trees, Plot C 100 trees, end of the summer of 2010): None
- control of the Trioza erytreae attacks (citrus trees, foliar treatment once a month with 80 ppm of MSB in aqueous solution from February 2010, assessed at the end of the summer of 2010): 100%

From patent US20130225406A1 (priority 2010, published 2013)
